Laboratory results as given in PMC5078989, “Targeted inhibition of the COP9 signalosome for treatment of cancer” (Nature Communications, 2016).

Legend:
Format in all cases: biochemical
Human AMSHLP = biological target: T1, Human AMSHLP (Homo sapiens, UniProt Q96FJ0); experiment: Selectivity assay AMSHLP (ubiquitin-rhodamine110-glycine substrate); settings: JAMM domain protease
T1 construct: made in house; host or cells: E. coli
T1 sequence (Q96FJ0 1-436): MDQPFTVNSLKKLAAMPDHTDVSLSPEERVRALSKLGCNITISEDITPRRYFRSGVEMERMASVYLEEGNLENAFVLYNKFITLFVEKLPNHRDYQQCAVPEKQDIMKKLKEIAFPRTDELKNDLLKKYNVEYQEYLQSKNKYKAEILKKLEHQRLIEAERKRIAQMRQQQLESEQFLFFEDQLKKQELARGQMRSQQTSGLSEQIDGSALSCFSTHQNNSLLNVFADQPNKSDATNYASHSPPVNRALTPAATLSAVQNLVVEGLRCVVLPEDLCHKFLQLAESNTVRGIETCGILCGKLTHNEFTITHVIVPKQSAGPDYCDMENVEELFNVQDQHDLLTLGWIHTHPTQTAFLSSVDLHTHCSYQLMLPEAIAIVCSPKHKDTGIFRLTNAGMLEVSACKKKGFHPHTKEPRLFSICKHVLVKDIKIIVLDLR
Experimental: (§1) All biochemical assays were performed at room temperature in 384-well plates in a total volume of 25.25 μl per well. Test compounds were dissolved in 90% (v/v) DMSO/water. For the assays, 250 nl of compound solution was added per well, followed by addition of 12.5 μl protease solution. After 70 min of pre-incubation at room temperature, the reactions were started by addition of 12.5 μl substrate solution and followed either by measuring fluorescence intensity (rhodamine 110-based substrates) or by fluorescence lifetime (PT14-based substrates). The effect of compound on enzymatic activity was obtained from the linear part of the progress curves and determined after 1 h (t=60 min). The final compound concentrations ranged from 100 μM to 1 nM.
Human AMSHLP. Enzyme was expressed in and purified from E. coli; substrate: ubiquitin-rhodamine110-glycine was purchased from emp Biotech GmbH (Berlin, Germany; product number AS 09/12-A4); enzyme concentration: 4 nM; substrate concentration: 200 nM; assay buffer: 100 mM Tris/HCl at pH 7.5, 10 mM CaCl2, 100 mM NaCl, 10 μM ZnCl2, 0.005% (v/v) BRIJ 35 and 5 mM dithioerythritol (DTE).

human MMP13 = biological target: T2, human MMP13 (Homo sapiens, UniProt P45452); experiment: Selectivity assay MMP13
T2 construct: human MMP13 (Uniprot P45452), amino acids 103–274; made in house; host or cells: E. coli
Experimental: as §1
(§2) Matrix metalloproteinases. Human MMP1 (Uniprot P03956), amino acids 1–469, expressed in and purified from stable transfected C127 cells; human MMP2 (Uniprot P08253), amino acids 1–660, expressed in and purified from insect cells (baculovirus expression system); human MMP8 (Uniprot P22894), amino acids 100–262, expressed in and purified from E. coli; human MMP9 (Uniprot P14780), amino acids 1–707, expressed in and purified from stable transfected 293 cells; human MMP12 (Uniprot P39900), amino acids 101–268, expressed in and purified from E. coli; human MMP13 (Uniprot P45452), amino acids 103–274, expressed in and purified from E. coli; human MMP14 (Uniprot P50281), amino acids 112–284, expressed in and purified from E. coli; human ADAM17 (Uniprot P78536), amino acids 1–670, expressed in and purified from insect cells (baculovirus expression system); substrate: Ac-C(PT14)-[…]-NH2 purchased from Biosyntan (product number 8069); enzyme concentrations: 3 nM (MMP1), 1 nM (MMP2), 3 nM (MMP8), 0.1 nM (MMP9), 0.5 nM (MMP12), 0.13 nM (MMP13), 0.005 nM (MMP14), 30 nM (ADAM17); substrate concentration: 0.8 μM; assay buffer: 100 mM Tris, pH 7.4, 100 mM NaCl, 10 mM CaCl2, 10 μM ZnCl2, 0.075% (v/v) Brij35.

human MMP8 = biological target: T3, human MMP8 (Homo sapiens, UniProt P22894); experiment: Selectivity assay MMP8
T3 construct: human MMP8 (Uniprot P22894), amino acids 100–262; made in house; host or cells: E. coli
T3 sequence (P22894 100-262): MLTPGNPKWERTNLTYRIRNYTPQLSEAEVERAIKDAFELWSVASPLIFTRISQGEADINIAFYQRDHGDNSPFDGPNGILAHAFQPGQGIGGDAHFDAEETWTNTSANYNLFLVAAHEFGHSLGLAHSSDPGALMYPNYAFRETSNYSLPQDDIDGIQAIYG
Experimental: as §1, §2

human MMP2 = biological target: T4, human MMP2 (Homo sapiens, UniProt P08253); experiment: Selectivity assay MMP2
T4 construct: human MMP2 (Uniprot P08253), amino acids 1–660; made in house; host or cells: insect cells (baculovirus)
T4 sequence (P08253 30-660): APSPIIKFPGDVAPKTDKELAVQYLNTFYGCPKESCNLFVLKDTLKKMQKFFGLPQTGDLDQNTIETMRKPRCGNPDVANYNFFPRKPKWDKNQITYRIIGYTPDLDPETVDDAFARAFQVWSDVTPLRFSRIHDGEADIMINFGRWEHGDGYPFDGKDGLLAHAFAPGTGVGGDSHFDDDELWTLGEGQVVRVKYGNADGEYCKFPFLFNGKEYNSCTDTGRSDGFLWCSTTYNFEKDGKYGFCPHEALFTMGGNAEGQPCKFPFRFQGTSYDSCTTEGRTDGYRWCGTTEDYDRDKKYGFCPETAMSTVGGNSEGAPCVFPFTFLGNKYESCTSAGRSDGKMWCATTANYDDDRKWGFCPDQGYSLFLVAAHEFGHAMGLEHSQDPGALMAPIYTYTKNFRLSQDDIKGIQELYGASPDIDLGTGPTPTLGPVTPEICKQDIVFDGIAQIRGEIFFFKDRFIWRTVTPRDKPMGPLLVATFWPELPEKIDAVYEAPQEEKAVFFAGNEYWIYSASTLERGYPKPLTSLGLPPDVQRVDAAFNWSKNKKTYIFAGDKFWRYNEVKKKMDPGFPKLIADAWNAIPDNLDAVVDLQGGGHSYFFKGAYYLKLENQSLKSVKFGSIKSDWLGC
Experimental: as §1, §2

| SMILES | IC50 (Human AMSHLP) | IC50 (human MMP13) | IC50 (human MMP8) | IC50 (human MMP2) |
| --- | --- | --- | --- | --- |
| COCc1ccccc1NCc1ccc([C@H]2[C@@H](O)CCCc3cncn32)c(-c2ccccc2Cl)c1 [CSN5i-2, (5S,6S)-5-(2′-chloro-5-(((2-(methoxymethyl)phenyl)amino)methyl)-[1,1′-biphenyl]-2-yl)-6,7,8,9-tetrahydro-5H-imidazo[1,5-a]azepin-6-ol] | > 100 µM | > 100 µM | 59 ± 8 µM | 89 ± 3 µM |
| COCc1ccccc1NCc1ccc([C@@H]2[C@H](O)CCCc3cncn32)c(-c2ccccc2Cl)c1 [CSN5i-2e, (5R,6R)-5-(2′-chloro-5-(((2-(methoxymethyl)phenyl)amino)methyl)-[1,1′-biphenyl]-2-yl)-6,7,8,9-tetrahydro-5H-imidazo[1,5-a]azepin-6-ol] | > 100 µM | > 100 µM | 48 ± 8 µM | ≥ 90 µM |
| CC(C)n1nc(C(F)F)cc1C(=O)Nc1ccc([C@H]2[C@@H](O)CCCc3cncn32)c(-c2ccccc2)c1 [CSN5i-3, 3-(Difluoromethyl)-N-(6-((5S,6S)-6-hydroxy-6,7,8,9-tetrahydro-5H-imidazo[1,5-a]azepin-5-yl)-[1,1′-biphenyl]-3-yl)-1-isopropyl-1H-pyrazole-5-carboxamide] | > 100 µM | > 100 µM | 14 ± 0.1 µM | > 100 µM |
